{"source": "patent US5424396A", "about": "“Antimicrobial peptide and antimicrobial agent” (Morinaga Milk Industry Co., Ltd., priority 1991, dated 1995)", "tested_on": "Escherichia coli", "test": "Antimicrobial activity test: rate of inhibition of E. coli proliferation (turbidity)", "assay_type": "cell-based", "settings": "16 hours at 37° C.", "description": "One platinum loop was collected from a stock slant of Escherichia coli, streaked on a standard agar medium (manufactured by Nissui Pharmaceutical Co.) and incubated under aerobic conditions for 16 hours at 37° C., the colonies which grew on the surface of the standard agar medium were collected using a platinum loop, suspended in sterilized physiological saline solution, the turbidity was measured using a spectrophotometer (manufactured by Hitachi Manufacturing Co.) and adjusted to 0.1 (O.D.; 660 nm) and a pre-incubation solution was prepared.\nBactocasitone (manufactured by Difco Laboratory Co.) was dissolved at a concentration of 1% in purified water, the pH was adjusted to 7.0 with 1M sodium hydroxide, the solution was sterilized at 115° C. for 15 minutes and a basal medium (liquid medium) was prepared. […]\nThe percentages of the rate of inhibition of proliferation are not in weight (same hereinafter)."}
{"substance": "Trp-Gln-Trp-Arg (WQWR) [Sample No. 7]", "values": [{"measurement": "inhibitory rate (rate of inhibition of proliferation)", "setting": "added quantity 0.5 μM", "value": 0, "unit": "%"}, {"measurement": "inhibitory rate (rate of inhibition of proliferation)", "setting": "added quantity 1 μM", "value": 21, "unit": "%"}, {"measurement": "inhibitory rate (rate of inhibition of proliferation)", "setting": "added quantity 2 μM", "value": 68, "unit": "%"}, {"measurement": "inhibitory rate (rate of inhibition of proliferation)", "setting": "added quantity 5 μM", "value": 83, "unit": "%"}, {"measurement": "inhibitory rate (rate of inhibition of proliferation)", "setting": "added quantity 10 μM", "value": 95, "unit": "%"}, {"measurement": "inhibitory rate (rate of inhibition of proliferation)", "setting": "added quantity 20 μM", "value": 100, "unit": "%"}, {"measurement": "inhibitory rate (rate of inhibition of proliferation)", "setting": "added quantity 60 μM", "value": 100, "unit": "%"}, {"measurement": "inhibitory rate (rate of inhibition of proliferation)", "setting": "added quantity 100 μM", "value": 100, "unit": "%"}, {"measurement": "inhibitory rate (rate of inhibition of proliferation)", "setting": "added quantity 200 μM", "value": 100, "unit": "%"}]}
